As a reminder, the MIC is the least concentration at which growth counts as inhibited.

The text below walks through data of patent US7241771B2, “Oxepane isomer of 42-O-(2-hydroxy)ethyl-rapamycin” (Wyeth, priority 2005, dated 2007).

Common to all, as to test: Antifungal activity, microtiter MIC
Format in all cases: cell-based

Experiment [1] relates to Candida tropicalis. The settings on record: RPMI 1640, 35° C., 24–48 hours. The method, then: (§1) Antifungal activity for the compound of this invention was established by evaluation against several strains of fungi. Briefly, the following procedure was used to evaluate such activity. A 96 well microtiter plate was filled (50 μL/well) with RPMI 1640. The compounds to be evaluated were placed in appropriate wells and serial diluted in successive wells to provide several dilutions. The concentrations ranged from […]. An adjusted inoculum of fungi (50 μL) was added to each well and plates were incubated at 35° C. for 24–48 hours.

Experiment [2] relates to Candida parapsilosis. The settings on record: RPMI 1640, 35° C., 24–48 hours; for MIC: Lodderomyces parapsilosis. The method, then: as §1
Experiment [3] relates to Aspergillus niger. The settings on record: Aspergillus niger strain ATCC 16404, RPMI 1640, 35° C., 24–48 hours. The method, then: as §1
The subject of experiment [4] is Candida krussii. The settings on record: Candida krussii strain 94-2; RPMI 1640, 35° C., 24–48 hours. The procedure: as §1
For experiment [5], the system named is Candida rugosa. As to conditions: Candida rugosa strain 94-10, RPMI 1640, 35° C., 24–48 hours. The method, then:
as §1

The subject of experiment [6] is Candida pseudotropicalis. The settings on record: Candida pseudotropicalis strain ATCC 28838, RPMI 1640, 35° C., 24–48 hours. The method, then: as §1
The subject of experiment [7] is Candida zeylanoided. As to conditions: Candida zeylanoided strain 94-15; RPMI 1640, 35° C., 24–48 hours. The procedure: as §1
Experiment [8] concerns Aspergillus flavusr. The settings on record: Aspergillus flavusr strain S506; RPMI 1640, 35° C., 24–48 hours. The procedure:
as §1

The test system of experiment [9] is Aspergillus fumigatus. As to conditions: Aspergillus fumigatus strain ATCC 26933, RPMI 1640, 35° C., 24–48 hours. The method, then:
as §1

For experiment [10], the system named is Candida albicans. The settings on record: RPMI 1640, 35° C., 24–48 hours; for MIC: Candida albicans. The method, then: as §1
Experiment [11] has as its system Candida lusitaniae. The settings on record: Candida lusitaniae strain 94-3, RPMI 1640, 35° C., 24–48 hours. The method, then:
as §1

Where [12] appears, read: Candida tropicalis strain 94-13.
[13] abbreviates: Candida tropicalis strain 94-14.
The mark [14] stands for this setting: Candida parapsilosis strain 94-8.
[15] abbreviates: Candida parapsilosis strain 94-9.
The mark [16] stands for this setting: Candida parapsilosis strain ATCC 90018.
Where [17] appears, read: Candida albicans strain ATCC 90028.

The structures appear in SMILES notation. In brackets after ≈: the same amount, converted by molar mass.

For the compound `C[C@@H]1[C@H](O)[C@@H](C)/C=C/C=C/CC/C=C/C=C/C=C/C=C/C(O[C@H]2O[C@H](C)[C@@H](O)[C@H](N)[C@@H]2O)CC2O[C@](O)(CC(O)C(O)CCC(O)CC(O)CC(O)CC(=O)O[C@H]1C)CC(O)C2C(=O)O` (stereo partly drawn) [Nystatin], the “Antifungal Activity (MIC)” value in experiment [1] (setting [12]) was found to be 1 µg/mL; in experiment [1] (setting [13]), 2 µg/mL; in experiment [2] (setting [14]) it was 2 µg/mL; in [2] (setting [15]), 1 µg/mL; in experiment [2] (setting [16]), 2 µg/mL; in [3], 1 µg/mL. The “Antifungal Activity (MIC)” value in experiment [4] amounted to 1 µg/mL; in experiment [5], 1 µg/mL; in [6], 1 µg/mL; in experiment [7] it was 1 µg/mL; in experiment [8] it was 2 µg/mL; in [9], 2 µg/mL. The “Antifungal Activity (MIC)” value came out at 2 µg/mL in [10] (Candida albicans strain 94-1); 1 µg/mL in experiment [10] (Candida albicans strain 1063); 1 µg/mL in [10] (Candida albicans strain 1117); 1 µg/mL in [10] (setting [17]); 1 µg/mL in experiment [11].

In the case of `C[C@@H]1[C@H](O)[C@@H](C)/C=C/C=C/C=C/C=C/C=C/C=C/C=C/[C@H](O[C@@H]2O[C@H](C)[C@@H](O)[C@H](N)[C@@H]2O)C[C@@H]2O[C@](O)(C[C@@H](O)C[C@@H](O)[C@H](O)CC[C@@H](O)C[C@@H](O)CC(=O)O[C@H]1C)C[C@H](O)[C@H]2C(=O)O` [Amphotericin B], the “Antifungal Activity (MIC)” value in [1] (setting [12]) is 0.125 µg/mL; in experiment [1] (setting [13]) it was 0.125 µg/mL; in [2] (setting [14]) it was “≦0.06 μg/mL”; in experiment [2] (setting [15]) it was 0.125 µg/mL; in experiment [2] (setting [16]), “≦0.06 μg/mL”; in experiment [3], 0.25 µg/mL. The “Antifungal Activity (MIC)” value was 0.125 µg/mL in [4]; 0.25 µg/mL in experiment [5]; “≦0.06 μg/mL” in experiment [6]; 0.25 µg/mL in [7]; 0.50 µg/mL in [8]; 0.25 µg/mL in experiment [9]. Also, the “Antifungal Activity (MIC)” value was 0.125 µg/mL in [10] (Candida albicans strain 94-1); “≦0.06 μg/mL” in experiment [10] (Candida albicans strain 1063); “≦0.06 μg/mL” in [10] (Candida albicans strain 1117); 0.125 µg/mL in [10] (setting [17]); 0.125 µg/mL in experiment [11].

With `COC1CC2CCC(C)C(=O)C(O)(O2)C(=O)N2CCCCC2C(=O)OC(C(C)CC2CCC(OCCO)C(OC)C2)CC(=O)C(C)/C=C(\C)C(O)C(OC)C(=O)C(C)CC(C)/C=C/C=C/C=C/1C` (stereo not drawn) [Compound, 1,17-dihydroxy-11-{2-[4-(2-hydroxy-ethoxy)-3-methoxy-cyclohexyl]-1methyl-ethyl}-18,29-dimethoxy-14,16,20,22,28,34-hexamethyl-10,36-dioxa-3-aza-tricyclo[29.4.1.0˜3,8]hexatriaconta-15,23,25,27-tetraen-2,9,13,19,35-pentaone], the “Antifungal Activity (MIC)” value in experiment [1] (setting [12]) and in experiment [2] (setting [14]) was 0.125 µg/mL in each case. The MIC in experiment [1] (setting [13]) stood at 0.125 µg/mL (≈ 0.13 µM); in experiment [2] (ATCC90018, Candida parapsilosis strain ATCC 90018), 0.25 µg/mL (≈ 0.261 µM); in experiment [2] (setting [15]) it was 0.125 µg/mL (≈ 0.13 µM); in experiment [3] (ATCC16404), 8 µg/mL (≈ 8.35 µM); in experiment [4] it was 0.5 µg/mL (≈ 0.522 µM); in experiment [5] (Diutina rugosa), 0.25 µg/mL (≈ 0.261 µM). The MIC is not above 0.06 µg/mL in [6] (Kluyveromyces marxianus, ATCC28838); not above 0.06 µg/mL in experiment [7]; 8 µg/mL (≈ 8.35 µM) in [8]; 32 µg/mL (≈ 33.4 µM) in experiment [9] (ATCC26933); 0.125 µg/mL (≈ 0.13 µM) in experiment [10] (ATCC90028, Candida albicans strain ATCC 90028); 0.25 µg/mL (≈ 0.261 µM) in [10] (Candida albicans strain 94-1). Also, the figures for the MIC in experiment [10] (Candida albicans strain 1063), in experiment [10] (Candida albicans strain 1117) and in experiment [11] (Clavispora lusitaniae) were not above 0.06 µg/mL, 0.125 µg/mL (≈ 0.13 µM) and not above 0.06 µg/mL, respectively.
